Nine compounds from patent publication US20230219904A1 (SYNGENTA CROP PROTECTION AG, priority 2020, published 2023) can be followed below.

Common to all, as to assay type: in vivo
What all share (details): applied at 125 g/ha, evaluated after 13 days

Experiment [1] relates to Abutilon theophrasti (ABUTH). In words: Pre-emergence herbicidal glasshouse test (Table B1). The protocol:
(§1) Seeds of a variety of test species are sown in standard soil in pots (Lolium perenne (LOLPE), Amaranthus retoflexus (AMARE), Abutilon theophrasti (ABUTH), Setaria faberi (SETFA), Echinochloa crus-galh (ECHCG), Ipomoea hederacea (IPOHE)). After cultivation for one day (pre-emergence) or after 8 days cultivation (post-emergence) under controlled conditions in a glasshouse (at 24/16° C., day/night; 14 hours light; 65% humidity), the plants are sprayed with an aqueous spray solution derived from the formulation of the technical active ingredient in acetone/water (50:50) solution containing 0.5% Tween 20 (polyoxyethelyene sorbitan monolaurate, CAS RN 9005-64-5). Compounds are applied at 500 g/h unless otherwise indicated. The test plants are then grown in a glasshouse under controlled conditions in a glasshouse (at 24/16° C., day/night; 14 hours light; 65% humidity) and watered twice daily. After 13 days for pre and post-emergence, the test is evaluated for the percentage damage caused to the plant. The biological activities are shown in the following table on a five-point scale (5=80-100%; 4=60-79%; 3=40-59%; 2=20-39%; 1=0-19%).

The subject of experiment [2] is Amaranthus retoflexus (AMARE). Described as above. The protocol:
as §1

Experiment [3] deals with Echinochloa crus-galh (ECHCG). Described as above. The protocol:
as §1

Experiment [4] concerns Ipomoea hederacea (IPOHE). The experiment is described as above. The protocol: as §1
In experiment [5] the test system is Setaria faberi (SETFA). The experiment is described as above. The protocol:
as §1

In experiment [6] the test system is Amaranthus retoflexus (AMARE). In words: Post-emergence herbicidal glasshouse test (Table B1). The protocol: as §1
In experiment [7] the test system is Echinochloa crus-galh (ECHCG). The experiment is described as above. The protocol:
as §1

In experiment [8] the test system is Ipomoea hederacea (IPOHE). The description is as above. The protocol:
as §1

The subject of experiment [9] is Setaria faberi (SETFA). Described as above. The protocol: as §1

As to `CCC(C)C(=O)Nc1c(OC(F)(F)F)ccc(C(=O)Nc2nnnn2CC)c1Cl` (stereo not drawn) [Compound 1.076], in [1], the “PRE Application ABUTH, percentage damage on five-point scale” value (from here on “PRE Application ABUTH, percentage damage”) is reported as 5 (5=80-100%). Further, in experiment [2], the “PRE Application AMARE, percentage damage on five-point scale” value (shortened to “PRE Application AMARE, percentage damage”) is reported as 5 (5=80-100%). Also, in experiment [3], the “PRE Application ECHCG, percentage damage on five-point scale” value (“PRE Application ECHCG, percentage damage” below) was 5 (5=80-100%). Also, the “PRE Application IPOHE, percentage damage on five-point scale” value (from here on “PRE Application IPOHE, percentage damage”) in experiment [4] is given as 5 (5=80-100%). In addition, in [5], the “PRE Application SETFA, percentage damage on five-point scale” value (shortened to “PRE Application SETFA, percentage damage”) is 5 (5=80-100%). Moreover, the “POST Application AMARE, percentage damage on five-point scale” value in [6] is 4 (4=60-79%). Besides, in experiment [7], the “POST Application ECHCG, percentage damage on five-point scale” value is recorded as 5 (5=80-100%). Besides, the “POST Application IPOHE, percentage damage on five-point scale” value in experiment [8] is 4 (4=60-79%). Also, the “POST Application SETFA, percentage damage on five-point scale” value in [9] was 4 (4=60-79%).

Turning to `CCCOCC(=O)Nc1c(OC(F)(F)F)ccc(C(=O)Nc2nnnn2CC)c1Cl` [Compound 1.070], the “PRE Application ABUTH, percentage damage” value in experiment [1] is listed as 5 (5=80-100%). Further, the “PRE Application AMARE, percentage damage” value in experiment [2] is recorded as 5 (5=80-100%). For the same compound, the “PRE Application ECHCG, percentage damage” value in experiment [3] is listed as 4 (4=60-79%). Further, in experiment [4], the “PRE Application IPOHE, percentage damage” value is 4 (4=60-79%). For the same compound, the “PRE Application SETFA, percentage damage” value in experiment [5] is recorded as 4 (4=60-79%). Besides, the “POST Application AMARE, percentage damage on five-point scale” value in experiment [6] is 4 (4=60-79%). The “POST Application ECHCG, percentage damage on five-point scale” value in experiment [7] was 4 (4=60-79%). The “POST Application IPOHE, percentage damage on five-point scale” value in experiment [8] is listed as 4 (4=60-79%). Also, the “POST Application SETFA, percentage damage on five-point scale” value in experiment [9] was 4 (4=60-79%).

With `CCn1nnnc1NC(=O)c1ccc(OC(F)(F)F)c(NC(=O)CCCOC)c1Cl` [Compound 1.067], the “PRE Application ABUTH, percentage damage” value in experiment [1] is listed as 5 (5=80-100%). Besides, the “PRE Application AMARE, percentage damage” value in experiment [2] is listed as 5 (5=80-100%). Moreover, in [3], the “PRE Application ECHCG, percentage damage” value was 5 (5=80-100%). The “PRE Application IPOHE, percentage damage” value in experiment [4] is 5 (5=80-100%). For the same compound, the “PRE Application SETFA, percentage damage” value in [5] is 5 (5=80-100%). The “POST Application AMARE, percentage damage on five-point scale” value in experiment [6] is 5 (5=80-100%). Further, the “POST Application ECHCG, percentage damage on five-point scale” value in [7] is 5 (5=80-100%). Besides, the “POST Application IPOHE, percentage damage on five-point scale” value in [8] is given as 4 (4=60-79%). In addition, in [9], the “POST Application SETFA, percentage damage on five-point scale” value is listed as 5 (5=80-100%).

In the case of `CCn1nnnc1NC(=O)c1ccc(OC(F)(F)F)c(NC(=O)C(C)OC)c1Cl` (stereo not drawn) [Compound 1.071], the “PRE Application ABUTH, percentage damage” value in experiment [1] is 5 (5=80-100%). Moreover, in experiment [2], the “PRE Application AMARE, percentage damage” value is reported as 5 (5=80-100%). Besides, the “PRE Application ECHCG, percentage damage” value in [3] is 5 (5=80-100%). Moreover, the “PRE Application IPOHE, percentage damage” value in experiment [4] is reported as 5 (5=80-100%). The “PRE Application SETFA, percentage damage” value in experiment [5] is 5 (5=80-100%). Further, in [6], the “POST Application AMARE, percentage damage on five-point scale” value was 4 (4=60-79%). The “POST Application ECHCG, percentage damage on five-point scale” value in experiment [7] is 5 (5=80-100%). Besides, the “POST Application IPOHE, percentage damage on five-point scale” value in experiment [8] is listed as 4 (4=60-79%). Further, the “POST Application SETFA, percentage damage on five-point scale” value in experiment [9] is reported as 5 (5=80-100%).

On to `Cn1nnnc1NC(=O)c1ccc(OC(F)F)c(NC(=O)c2ncc(C(F)(F)F)cc2Cl)c1Cl` [Compound 1.081], for which the “PRE Application ABUTH, percentage damage” value in [1] is recorded as 5 (5=80-100%). In addition, the “PRE Application AMARE, percentage damage” value in [2] is reported as 5 (5=80-100%). For the same compound, in experiment [3], the “PRE Application ECHCG, percentage damage” value was 1 (1=0-19%). Moreover, the “PRE Application IPOHE, percentage damage” value in experiment [4] was 1 (1=0-19%). Moreover, in experiment [5], the “PRE Application SETFA, percentage damage” value was 1 (1=0-19%). Moreover, in experiment [6], the “POST Application AMARE, percentage damage on five-point scale” value is reported as 4 (4=60-79%). Moreover, the “POST Application ECHCG, percentage damage on five-point scale” value in [7] is 3 (3=40-59%). Further, the “POST Application IPOHE, percentage damage on five-point scale” value in experiment [8] is listed as 4 (4=60-79%). The “POST Application SETFA, percentage damage on five-point scale” value in experiment [9] was 3 (3=40-59%).

Consider `Cn1nnnc1NC(=O)c1ccc(OC(F)F)c(NC(=O)c2cc(C(F)(F)F)ccn2)c1Cl` [Compound 1.053], for which the “PRE Application ABUTH, percentage damage” value in [1] is on record as 5 (5=80-100%). Moreover, in experiment [2], the “PRE Application AMARE, percentage damage” value is 5 (5=80-100%). Also, the “PRE Application ECHCG, percentage damage” value in [3] is given as 4 (4=60-79%). In addition, in experiment [4], the “PRE Application IPOHE, percentage damage” value is 4 (4=60-79%). In addition, the “PRE Application SETFA, percentage damage” value in experiment [5] is recorded as 4 (4=60-79%). In addition, the “POST Application AMARE, percentage damage on five-point scale” value in experiment [6] was 5 (5=80-100%). Also, the “POST Application ECHCG, percentage damage on five-point scale” value in [7] is reported as 3 (3=40-59%). For the same compound, the “POST Application IPOHE, percentage damage on five-point scale” value in [8] is recorded as 4 (4=60-79%). Further, in [9], the “POST Application SETFA, percentage damage on five-point scale” value is 5 (5=80-100%).

As to `CCOCC(=O)Nc1c(OC(F)(F)F)ccc(C(=O)Nc2nnnn2CC)c1Cl` [Compound 1.074], the “PRE Application ABUTH, percentage damage” value in experiment [1] is listed as 5 (5=80-100%). Moreover, the “PRE Application AMARE, percentage damage” value in experiment [2] is given as 5 (5=80-100%). The “PRE Application ECHCG, percentage damage” value in experiment [3] is on record as 4 (4=60-79%). Moreover, in experiment [4], the “PRE Application IPOHE, percentage damage” value was 5 (5=80-100%). Further, the “PRE Application SETFA, percentage damage” value in experiment [5] is on record as 4 (4=60-79%). Further, in [6], the “POST Application AMARE, percentage damage on five-point scale” value is 5 (5=80-100%). In experiment [7], the “POST Application ECHCG, percentage damage on five-point scale” value is 5 (5=80-100%). In addition, the “POST Application IPOHE, percentage damage on five-point scale” value in experiment [8] is reported as 5 (5=80-100%). The “POST Application SETFA, percentage damage on five-point scale” value in experiment [9] is recorded as 5 (5=80-100%).

Take `CCC(=O)Nc1c(OC(F)F)ccc(C(=O)Nc2nnnn2C)c1C(F)(F)F` [Compound 1.096]: the “PRE Application ABUTH, percentage damage” value in experiment [1] is 3 (3=40-59%). In [2], the “PRE Application AMARE, percentage damage” value is on record as 4 (4=60-79%). For the same compound, in experiment [3], the “PRE Application ECHCG, percentage damage” value is listed as 1 (1=0-19%). Moreover, the “PRE Application IPOHE, percentage damage” value in [4] was 3 (3=40-59%). Moreover, in [5], the “PRE Application SETFA, percentage damage” value was 1 (1=0-19%). Besides, the “POST Application AMARE, percentage damage on five-point scale” value in [6] is 4 (4=60-79%). For the same compound, the “POST Application ECHCG, percentage damage on five-point scale” value in [7] is on record as 4 (4=60-79%). Moreover, the “POST Application IPOHE, percentage damage on five-point scale” value in experiment [8] is 3 (3=40-59%). Also, the “POST Application SETFA, percentage damage on five-point scale” value in experiment [9] is recorded as 3 (3=40-59%).

`CCn1nnnc1NC(=O)c1ccc(OC(F)(F)F)c(NC(=O)COC(C)C)c1Cl` [Compound 1.072]: in experiment [1], the “PRE Application ABUTH, percentage damage” value was 5 (5=80-100%). Besides, the “PRE Application AMARE, percentage damage” value in [2] is 5 (5=80-100%). In experiment [3], the “PRE Application ECHCG, percentage damage” value is 5 (5=80-100%). The “PRE Application IPOHE, percentage damage” value in experiment [4] is reported as 5 (5=80-100%). Moreover, in [5], the “PRE Application SETFA, percentage damage” value is given as 4 (4=60-79%). For the same compound, the “POST Application AMARE, percentage damage on five-point scale” value in experiment [6] is given as 4 (4=60-79%). In experiment [7], the “POST Application ECHCG, percentage damage on five-point scale” value is recorded as 5 (5=80-100%). For the same compound, the “POST Application IPOHE, percentage damage on five-point scale” value in experiment [8] is on record as 4 (4=60-79%). Besides, the “POST Application SETFA, percentage damage on five-point scale” value in experiment [9] was 5 (5=80-100%).
